# Reference: patent EP1582590A1, “Sequential intracellular screening method” (Aptanomics, priority 2004, dated 2005)
# Like-named read-outs stand apart in the source and are kept apart here.
# Experiments:
# Format in all cases: cell-based
# [1] = system: lexA-TGFβ-R and B42-FKBP12; assay: dual (duplex) two-hybrid assay, two yeast populations mixed in one well, luc signal
# Description: (§1) Yeast strains TB50 WT and TB50 ERG6 were transformed as described in Figure 1. They were grown from frozen transformants. For each strain, the two yeast cultures containing the two protein interactions were mixed together and delivered into a microwell plate. […] Experiments were performed in duplicates. The values are normalized with the signals obtained in presence of DMSO.
# (§2) 20µl of yeast cultures were delivered into 96 well half area white plates (Coming-Costar, ref. 3693). When applicable, 2µl of either DMSO 10% or 10µM of small molecules were added. 2µl of Galactose 20% were added to the wells to induce the expression of the preys. When two different yeast cultures were mixed in a single well, 10µl of each culture were used, to reach a total of 20µl. Plates were incubated at room temperature and left non-agitated for various times. […] Briefly, to lyse the yeast and reveal the activity of firefly luciferase, 25µl of reagent was added and the plates were incubated for another 40 to 60min at room temperature, without agitation, before being read in a luminometer. To reveal the activity of Renilla luciferase, 25µl of "stop&glo reagent" were added to the wells and the plates were incubated for another 60min at room temperature, without agitation, before a second reading. Luminescence was measured by a Trilux (Perkin Elmer) setting the integration at 1sec/well. […]
# [2] = biological target: T1, interaction between Trα and NCoR (Homo sapiens, UniProt P10827); assay: dual (duplex) two-hybrid assay, two yeast populations mixed in one well, ruc signal
# T1 construct: expressed in transfected cells; host or cells: Saccharomyces cerevisiae TB50 (WT and ERG6-deleted)
# T1 sequence (P10827 1-410 isoform P10827-2): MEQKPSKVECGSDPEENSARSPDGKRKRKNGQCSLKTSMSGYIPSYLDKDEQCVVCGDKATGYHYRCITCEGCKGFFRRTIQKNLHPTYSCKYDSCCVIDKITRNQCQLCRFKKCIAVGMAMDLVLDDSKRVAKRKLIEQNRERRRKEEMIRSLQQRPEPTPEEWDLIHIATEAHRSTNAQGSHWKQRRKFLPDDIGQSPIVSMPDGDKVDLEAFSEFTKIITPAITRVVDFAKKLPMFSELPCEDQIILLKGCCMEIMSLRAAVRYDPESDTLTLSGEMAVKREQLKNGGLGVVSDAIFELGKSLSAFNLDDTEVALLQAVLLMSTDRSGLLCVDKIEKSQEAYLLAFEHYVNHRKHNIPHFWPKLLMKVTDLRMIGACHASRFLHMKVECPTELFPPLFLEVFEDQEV
# Description: as §1, §2
# [3] = biological target: TGF-β-R/FKBP12 (Rattus norvegicus, UniProt Q62658); assay: luminescent yeast two-hybrid assay, inhibition of protein interaction by small molecules (luc reporter)
# Chain of TGF-β-R/FKBP12 (Q62658 whole entry): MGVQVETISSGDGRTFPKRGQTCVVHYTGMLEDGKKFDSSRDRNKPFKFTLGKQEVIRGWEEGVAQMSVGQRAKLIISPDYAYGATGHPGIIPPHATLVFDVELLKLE
# Chain of TGF-β-R/FKBP12 (P80204 146-501 partner): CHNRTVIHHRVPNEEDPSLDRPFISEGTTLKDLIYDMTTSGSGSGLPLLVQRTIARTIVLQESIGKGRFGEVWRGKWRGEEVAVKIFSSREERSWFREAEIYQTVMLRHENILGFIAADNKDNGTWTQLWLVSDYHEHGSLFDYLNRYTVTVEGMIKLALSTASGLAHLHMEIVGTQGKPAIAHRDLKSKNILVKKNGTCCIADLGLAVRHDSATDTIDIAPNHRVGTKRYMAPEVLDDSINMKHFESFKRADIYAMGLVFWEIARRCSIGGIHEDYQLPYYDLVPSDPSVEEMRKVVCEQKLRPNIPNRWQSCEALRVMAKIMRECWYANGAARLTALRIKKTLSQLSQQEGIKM
# Description: They were grown from frozen transformants.
# 20µl of yeast cultures were delivered into 96 well half area white plates (Coming-Costar, ref. 3693). When applicable, 2µl of either DMSO 10% or 10µM of small molecules were added. 2µl of Galactose 20% were added to the wells to induce the expression of the preys. When two different yeast cultures were mixed in a single well, 10µl of each culture were used, to reach a total of 20µl. Plates were incubated at room temperature and left non-agitated for various times. To reveal the activity of both luciferases, a Dual-Glo™ luciferase assay system was used (Promega, ref. E2920) according to the instructions of the manufacturer. Briefly, to lyse the yeast and reveal the activity of firefly luciferase, 25µl of reagent was added and the plates were incubated for another 40 to 60min at room temperature, without agitation, before being read in a luminometer. To reveal the activity of Renilla luciferase, 25µl of "stop&glo reagent" were added to the wells and the plates were incubated for another 60min at room temperature, without agitation, before a second reading. Luminescence was measured by a Trilux (Perkin Elmer) setting the integration at 1sec/well. Values are given in LCPS (1LCPS = 100 counts per sec).
Compound,effect on luc two-hybrid signal [1],effect on ruc two-hybrid signal [2],"inhibition of the ruc two-hybrid signal ([2]; ERG6 deleted strain, high concentration of FK506, non-cognate interaction, duplex, induction time 5h) [%]","inhibition at 10 µM ([3]; read-out: % Inhibition 10µM, Addition of compound C 23h after induction of prey (partner B), plates read 5h later, TB50 WT) [%]","inhibition at 10 µM ([3]; read-out: % Inhibition 10µM, Addition of compound C before induction of prey (partner B), 5h induction time, TB50 WT) [%]","inhibition at 10 µM ([3]; read-out: inhibition of two-hybrid signals, 10µM FK506, maximum inhibition after 4h of induction time) [%]"
C[C@@H]1C[C@@H]([C@H](O)CC2CC(=O)NC(=O)C2)C(=O)[C@@H](C)C1 [cycloheximide],strongly inhibited both two-hybrid signals,strongly inhibited both two-hybrid signals,,,,
C=CC[C@@H]1/C=C(\C)C[C@H](C)C[C@H](OC)[C@H]2O[C@@](O)(C(=O)C(=O)N3CCCC[C@H]3C(=O)O[C@H](/C(C)=C/[C@@H]3CC[C@@H](O)[C@H](OC)C3)[C@H](C)[C@@H](O)CC1=O)[C@H](C)C[C@@H]2OC [FK506],,,40,46,80,> 90
